In brackets after ≈: the same amount, converted by molar mass. Some results are limits rather than exact numbers.

The record followed here is EPA's ToxValDB 9.5 (doi:10.2903/j.efsa.2010.1669).

The test system of one data set is Tagia sp. The settings on record: acute; duration: 14 days; mortality.
A further data set has as its system Canidae. The settings on record: oral, Dog Other, organ weight.
For the next data set, the system named is Colinus virginianus. The settings on record: for LD50: acute, oral, mortality.
For a further data set, the system named is Oryctolagus sp. The settings on record: developmental; development.
A further data set deals with Daphnia magna. The settings on record: chronic/long-term; duration: 21 days; reproduction.
The next data set deals with Rattus norvegicus. The settings on record: for NOAEL: body weight.
The test system of another data set is Apis mellifera. The settings on record: acute; duration: 48 hours; dermal; mortality.
Another data set relates to Aphidius rhopalosiphi. The data set can be described thus: LR50; higher = less toxic. The settings on record: not reported; mortality.

What is called NOAEL is the highest tested level that showed no adverse finding. As for `CCCC(=NOCC)C1=C(O)CC(C2CCCSC2)CC1=O` (stereo unspecified) [Cycloxydim], the LC50 is over 1000 mg/kg in the data set on Tagia sp. and 220 µg/mL (≈ 676 µM) in the data set with Oncorhynchus mykiss (acute, duration: 96 hours, mortality). Besides, the NOAEL in the data set with Canidae (chronic, duration: 1 years) amounted to 10 mg/kg-day; in the data set on Canidae (subchronic, duration: 3 months), 10 mg/kg-day; with Oryctolagus sp., 200 mg/kg-day; with Rattus norvegicus (chronic, duration: 18 months), 7 mg/kg-day; with Rattus norvegicus (chronic, duration: 24 months), 7 mg/kg-day; in the data set with Rattus norvegicus (reproduction developmental), 9.7 mg/kg-day. For the same compound, the LD50 in the data set with Colinus virginianus (diet) was 497 mg/kg-day; in the data set with Colinus virginianus, over 2000 mg/kg-day; in the data set with Rattus norvegicus (acute, oral, mortality) it was 3830 mg/kg-day; in the data set with Apis mellifera it was over 100 µg/piece. Moreover, the NOEC worked out at 65.4 mg/kg-day with Colinus virginianus (reproduction developmental); 62.5 mg/L with Daphnia magna; 21.5 mg/L in the data set with Oncorhynchus mykiss (chronic/long-term, duration: 28 days, growth). This compound showed an LR50 in the data set on Aphidius rhopalosiphi of 90.2 g/ha.
